Experimental data from the supplement of paper PMC11061612.

How the values were obtained:
[1] = test system: ES8 (Ewing's Sarcoma); assay: Bliss excess, mean over the matrix (fraction); higher = more synergy
Procedure, shortened: (§1)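 Cell lines grown in DMEM/F12 or RPMI with 10% FBS were plated in 1536-well plates and held 24 hours at 37°C, 5% CO2 before 72 hours of exposure to two-drug dose matrices, with DMSO typically at 0.2%. CellTiter-Glo 2.0 luminescence gave viability, which was converted to inhibition. Vehicle wells were set to 0 and blank wells to 1. Combination Emax is the second-highest inhibition in the matrix, and Bliss excess is the observed combination effect minus the expected EA + EB − EA·EB, where EA and EB are the single-agent effects.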

[2] = test system: WM-115 (Melanoma); assay: as above
Procedure, shortened: as §1

[3] = test system: CAMA-1 (Breast Carcinoma); assay: as above
Procedure, shortened: as §1

[4] = test system: MKN28 (Gastric Carcinoma); assay: as above
Procedure, shortened: as §1

[5] = test system: SR (Other Blood Carcinomas); assay: as above
Procedure, shortened: as §1

[6] = test system: L-540 (Hodgkin's Lymphoma); assay: as above
Procedure, shortened: as §1

[7] = test system: BFTC-905 (Bladder Carcinoma); assay: as above
Procedure, shortened: as §1

[8] = test system: NCI-H2818 (Mesothelioma); assay: as above
Procedure, shortened: as §1

[9] = test system: BL-41 (Burkitt's Lymphoma); assay: as above
Procedure, shortened: as §1

[10] = test system: DND-41 (T-Lymphoblastic Leukemia); assay: as above
Procedure, shortened: as §1

[11] = test system: K-562 (Chronic Myelogenous Leukemia); assay: as above
Procedure, shortened: as §1

[12] = test system: GR-ST (B-Lymphoblastic Leukemia); assay: as above
Procedure, shortened: as §1

[13] = test system: WIL2-NS (Non-Cancerous); assay: as above
Procedure, shortened: as §1

[14] = test system: SW1417 (Colorectal Carcinoma); assay: as above
Procedure, shortened: as §1

[15] = test system: NCI-H1792 (Lung Adenocarcinoma); assay: as above
Procedure, shortened: as §1

[16] = test system: ES1 (Ewing's Sarcoma); assay: as above
Procedure, shortened: as §1

[17] = test system: SW837 (Colorectal Carcinoma); assay: as above
Procedure, shortened: as §1

[18] = test system: ES8 (Ewing's Sarcoma); assay: combination Emax (second highest fraction inhibited in the dose matrix, 72 h); higher = more inhibition; extreme values may be limits of the assay
Procedure, shortened: as §1

[19] = test system: WM-115 (Melanoma); assay: as above
Procedure, shortened: as §1

[20] = test system: CAMA-1 (Breast Carcinoma); assay: as above
Procedure, shortened: as §1

[21] = test system: MKN28 (Gastric Carcinoma); assay: as above
Procedure, shortened: as §1

[22] = test system: SR (Other Blood Carcinomas); assay: as above
Procedure, shortened: as §1

[23] = test system: L-540 (Hodgkin's Lymphoma); assay: as above
Procedure, shortened: as §1

[24] = test system: BFTC-905 (Bladder Carcinoma); assay: as above
Procedure, shortened: as §1

[25] = test system: NCI-H2818 (Mesothelioma); assay: as above
Procedure, shortened: as §1

[26] = test system: BL-41 (Burkitt's Lymphoma); assay: as above
Procedure, shortened: as §1

[27] = test system: DND-41 (T-Lymphoblastic Leukemia); assay: as above
Procedure, shortened: as §1

[28] = test system: K-562 (Chronic Myelogenous Leukemia); assay: as above
Procedure, shortened: as §1

[29] = test system: GR-ST (B-Lymphoblastic Leukemia); assay: as above
Procedure, shortened: as §1

[30] = test system: WIL2-NS (Non-Cancerous); assay: as above
Procedure, shortened: as §1

[31] = test system: SW1417 (Colorectal Carcinoma); assay: as above
Procedure, shortened: as §1

[32] = test system: NCI-H1792 (Lung Adenocarcinoma); assay: as above
Procedure, shortened: as §1

[33] = test system: ES1 (Ewing's Sarcoma); assay: as above
Procedure, shortened: as §1

[34] = test system: SW837 (Colorectal Carcinoma); assay: as above
Procedure, shortened: as §1
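Throughout, for Bliss excess, mean over the matrix: after 72 h of two-drug dosing.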

Row | SMILES | Bliss excess [1] | Bliss excess [2] | Bliss excess [3] | Bliss excess [4] | Bliss excess [5] | Bliss excess [6] | Bliss excess [7] | Bliss excess [8] | Bliss excess [9] | Bliss excess [10] | Bliss excess [11] | Bliss excess [12] | Bliss excess [13] | Bliss excess [14] | Bliss excess [15] | Bliss excess [16] | Bliss excess [17] | combination Emax [18] | combination Emax [19] | combination Emax [20] | combination Emax [21] | combination Emax [22] | combination Emax [23] | combination Emax [24] | combination Emax [25] | combination Emax [26] | combination Emax [27] | combination Emax [28] | combination Emax [29] | combination Emax [30] | combination Emax [31] | combination Emax [32] | combination Emax [33] | combination Emax [34]
1 | C=CCn1c(=O)c2cnc(Nc3ccc(N4CCN(C)CC4)cc3)nc2n1-c1cccc(C(C)(C)O)n1 [AZD1775] + CCc1c2c(nc3ccc(O)cc13)-c1cc3c(c(=O)n1C2)COC(=O)[C@]3(O)CC [SN-38] (first compound max 1 µM, partner max 0.3 µM) | -0.0145 | -0.0252 | 0.0473 | 0.0317 | 0.0049 | -0.0458 | -0.0133 | -0.063 | -0.0252 | -0.0446 | 0.0873 | -0.0824 | -0.0755 | -0.0298 | -0.0124 | -0.0144 | -0.0222 | 1 | 0.416 | 0.466 | 0.689 | 1 | 0.953 | 0.946 | 0.399 | 1 | 0.983 | 0.953 | 0.825 | 0.961 | 0.793 | 0.755 | 1 | 0.703
2 | C=CCn1c(=O)c2cnc(Nc3ccc(N4CCN(C)CC4)cc3)nc2n1-c1cccc(C(C)(C)O)n1 [AZD1775] + Nc1ccn([C@@H]2O[C@H](CO)[C@@H](O)C2(F)F)c(=O)n1 [Gemcitabine] (first compound max 1 µM, partner max 0.3 µM) | 0.0248 | 0.0368 | 0.0354 | 0.0781 | 0.0344 | 0.0052 | -0.0015 | -0.0333 | -0.0067 | 0.0256 | 0.0554 | -0.0072 | 0.0149 | 0.0353 | -0.0287 | 0.0471 | 0.0269 | 1 | 0.459 | 0.534 | 0.552 | 1 | 0.968 | 0.836 | 0.44 | 1 | 0.943 | 0.869 | 0.855 | 0.973 | 0.663 | 0.878 | 1 | 0.691
3 | CN(CCO)CC[C@H](CSc1ccccc1)Nc1ccc(S(=O)(=O)NC(=O)c2ccc(N3CCC([C@@H](O)c4ccccc4-c4ccc(Cl)cc4)CC3)cc2)cc1S(=O)(=O)C(F)(F)F [AZD4320] + CC(=O)O[C@H]1C(=O)[C@@]2(C)[C@H]([C@H](OC(=O)c3ccccc3)[C@]3(O)C[C@H](OC(=O)[C@H](O)[C@@H](NC(=O)c4ccccc4)c4ccccc4)C(C)=C1C3(C)C)[C@]1(OC(C)=O)CO[C@@H]1C[C@@H]2O [Paclitaxel] (first compound max 1 µM, 7x7, partner max 3 µM) | 0.0317 | 0.0811 | 0.119 | 0.0942 | 0.0061 | 0.0162 | 0.0384 | 0.0844 | -0.0222 | 0.187 | -0.0181 | -0.0651 | -0.0331 | 0.0037 | 0.0049 | -0.0272 | 0.0777 | 1 | 0.851 | 0.843 | 0.738 | 1 | 0.974 | 0.989 | 0.745 | 1 | 1 | 0.981 | 0.839 | 0.942 | 0.864 | 0.986 | 0.984 | 0.878
4 | CN(CCO)CC[C@H](CSc1ccccc1)Nc1ccc(S(=O)(=O)NC(=O)c2ccc(N3CCC([C@@H](O)c4ccccc4-c4ccc(Cl)cc4)CC3)cc2)cc1S(=O)(=O)C(F)(F)F [AZD4320] + CS(=O)(=O)CCNCc1ccc(-c2ccc3ncnc(Nc4ccc(OCc5cccc(F)c5)c(Cl)c4)c3c2)o1 [Lapatinib] (first compound max 1 µM, 7x7, partner max 10 µM) | 0.121 | 0.0604 | 0.0048 | -0.0128 | 0.0765 | 0.137 | 0.034 | -0.0332 | -0.0006 | 0.0603 | -0.03 | -0.0086 | -0.0018 | 0.0238 | -0.0553 | -0.0147 | 0.0547 | 0.956 | 0.909 | 0.36 | 0.693 | 0.777 | 0.905 | 0.529 | 0.407 | 0.97 | 1 | 0.552 | 0.961 | 0.258 | 0.934 | 0.546 | 0.923 | 0.942
